The numbers were not newly measured in patent publication US20140295417A1, “IDENTIFICATION OF ANTIBIOTIC RESISTANCE” (priority 2011, published 2014), which cites them from elsewhere.

The test system of this data set is 23S rRNA. To be noted: cited from earlier work.

Molecules are shown by their SMILES. Like-named read-outs stand apart in the source and are kept apart here.

Regarding `C[C@H]1O[C@H](O[C@H]2CC[C@H](n3ccc(NC(=O)c4ccc(NC(=O)[C@@](C)(N)CO)cc4)nc3=O)O[C@@H]2C)[C@H](O)[C@@H](O)[C@@H]1N(C)C` [Amicetin], the Phenotype result is, setting by setting: (23S rRNA position 2438 "U to A", Halobacterium halobium) “Amicetin resistance”; (23S rRNA position 2438 "U to C", Halobacterium halobium) “Amicetin resistance”.
As to `COc1ccc(C[C@H]2NC[C@H](O)[C@H]2OC(C)=O)cc1` [Animosycin], the Phenotype entry (23S rRNA position 2452 "C to U", Halobacterium (Hummel and Böck 1987)) is recorded as “Animosycin resistance”; the Phenotype entry (23S rRNA position 2452 "C to U", Tetrahymena thermophilia) was “Animosycin resistance”.
Take `COc1ccc(C[C@H]2NC[C@H](O)[C@H]2OC(C)=O)cc1` [Anisomycin]: the Phenotype result by setting is: (23S rRNA position 2447 "G to C", Halobacterium halobium) “resistance”; (23S rRNA position 2453 "A to C", Halobacterium halobium) “Anisomycin resistance”.
With `O=C(N[C@H](CO)[C@H](O)c1ccc([N+](=O)[O-])cc1)C(Cl)Cl` [Chloramphenicol], the Phenotype result runs as follows: (23S position 2061 G to A, Rat mitochondria, Vester and Garrett 1988) “resistance”; (23S position 2062 A to C, Halobacterium halobium, Mankin and Garrett 1991) “resistance”; (23S rRNA position 2447 "G to A", Yeast mitochondria) “resistance”; (23S rRNA position 2451 "A to U", Mouse mitochondria) “resistance”; (23S rRNA position 2452 "C to A", Human mitochondria) “resistance”; (23S rRNA position 2452 "C to U", Halobacterium halobium (Mankin and Garrett 1991)) “resistance”. Also, the Phenotype entry (23S rRNA position 2452 "C to U", Mouse mitochondria) is listed as “resistance”; the Phenotype result (23S rRNA position 2503 "A to C", Yeast mitochondria) was “resistance”; the Phenotype entry (23S rRNA position 2504 "U to C", Human mitochondria) is given as “resistance”; the Phenotype result (23S rRNA position 2504 "U to C", Mouse mitochondria) is recorded as “resistance”.
Turning to `CC[C@H]1OC(=O)[C@H](C)[C@@H](O[C@H]2C[C@@](C)(OC)[C@@H](O)[C@H](C)O2)[C@H](C)[C@@H](O[C@@H]2O[C@H](C)C[C@H](N(C)C)[C@H]2O)[C@](C)(OC)C[C@@H](C)C(=O)[C@H](C)[C@@H](O)[C@]1(C)O` [Clarithomycin], under “23S position 2059 A to G, Helecobacter pylori, Versalovic 1996”, the Phenotype entry is “resistance”.
As for `CC[C@H]1OC(=O)[C@H](C)[C@@H](O[C@H]2C[C@@](C)(OC)[C@@H](O)[C@H](C)O2)[C@H](C)[C@@H](O[C@@H]2O[C@H](C)C[C@H](N(C)C)[C@H]2O)[C@](C)(OC)C[C@@H](C)C(=O)[C@H](C)[C@@H](O)[C@]1(C)O` [Clarithromycin], where the note is “23S position 2058 A to G, Helecobacter pylori, Versalovic 1996”, the Phenotype result was “resistance”.
As to `CC[C@H]1OC(=O)[C@H](C)[C@@H](O[C@H]2C[C@@](C)(OC)[C@@H](O)[C@H](C)O2)[C@H](C)[C@@H](O[C@@H]2O[C@H](C)C[C@H](N(C)C)[C@H]2O)[C@](C)(O)C[C@@H](C)C(=O)[C@H](C)[C@@H](O)[C@]1(C)O` [Ery], the Phenotype result is, setting by setting: (23S position 2058 A to U, double mutation (A2058U/G2032A), E. coli, Douthwaite 1992) “hs”; (23S rRNA 2032 G to A, double mutation (G2032A/A2058U), E. coli) “hs”; (23S rRNA 2057 G to A, double mutation (G2057A/C2661U), E. coli) “Slightly Eryr;”; (23S rRNA position 2611, "C to G", Chlamydomonas reinhardtii (Harris et al. 1989)) “Eryr”; (23S rRNA position 2611, "C to U", double mutation (C2611U/G2057A), E. coli (Vester et al. 1995)) “Slightly Eryr; reduced”; (23S rRNA position 2611, "C to U", Chlamydomonas reinhardtii (Harris et al. 1989)) “Eryr”.
As for `CC[C@H]1OC(=O)[C@H](C)[C@@H](O[C@H]2C[C@@](C)(OC)[C@@H](O)[C@H](C)O2)[C@H](C)[C@@H](O[C@@H]2O[C@H](C)C[C@H](N(C)C)[C@H]2O)[C@](C)(O)C[C@@H](C)C(=O)[C@H](C)[C@@H](O)[C@]1(C)O` [Erythromycin], the Phenotype entry (23S position 2058 A to G, Yeast mitochondria, Sor and Fukuhara 1982) is reported as “resistance”; the Phenotype entry (23S rRNA 1207 C to U, double mutant (C1207U/C1243U), E. coli) was “Erythromycin resistant. a Double”; the Phenotype entry (23S rRNA 1208 C to U, double mutant (C1208U/C1243U), E. coli) is “Erythromycin resistant. a Double”; the Phenotype result (23S rRNA 1211 C to U, double mutant (C1211U/C1208U), E. coli) is recorded as “Erythromycin sensitive. a Double”; the Phenotype entry (23S rRNA 1220 G to A, double mutant (G1220A/G1239A), E. coli) is recorded as “Erythromycin resistant. a Double”; the Phenotype result (23S rRNA 1221 C to U, double mutant (C1221U/C1229U), E. coli) was “Erythromycin resistant. a Double”. In addition, the Phenotype result (23S rRNA 1221 C to U, double mutant (C1221U/C1233U), E. coli) was “Erythromycin resistant. a Double”; the Phenotype result (23S rRNA 1230, double deletion (1230/1231), E. coli) is “Erythromycin sensitive. a Double”; the Phenotype entry (23S rRNA 1231, double deletion (1231/1230), E. coli) was “Erythromycin sensitive. a Double”; the Phenotype result (23S rRNA 1232 G to A, double mutant (G1232A/G1238A), E. coli) was “Erythromycin sensitive. a Double”; the Phenotype entry (23S rRNA 1233 C to U, E. coli) is “Erythromycin sensitive. a”; the Phenotype result (23S rRNA 1234 U to C, E. coli) is on record as “Erythromycin sensitive. a”. The Phenotype result is listed as “Erythromycin sensitive. a Double” (23S rRNA 1234 del1234/del1235, double mutant (U1234C/del1235), E. coli); “Erythromycin resistant. a Double” (23S rRNA 1243 C to U, double mutant (C1243U/C1207), E. coli); “Erythromycin resistant. a Double” (23S rRNA 1243 C to U, double mutant (C1243U/C1208U), E. coli); “Erythromycin resistant. a Double” (23S rRNA 1243 C to U, double mutant (C1243U/C1221U), E. coli).
As to `CCC[C@@H]1C[C@@H](C(=O)N[C@@H]([C@H]2O[C@H](SC)[C@H](O)[C@@H](O)[C@H]2O)[C@@H](C)O)N(C)C1` [Lincomycin], the Phenotype entry by setting is: (23S position 2058 A to G, Chlamydomonas reinhardtii, Harris 1989) “resistance”; (23S position 2058 A to G, Solanum nigrum, Kavanagh 1994) “resistance”; (23S position 2058 A to G, Tobacco chloroplasts, Cseplö 1988) “resistance”; (23S position 2059 A to G, Tobacco chloroplasts, Cseplö 1988) “resistance”; (23S rRNA 2032 G to A, Tobbaco chloroplasts) “resistance”.
As to `CSC[S@+]([O-])C[C@H](CO)NC(=O)/C=C/c1c(C)[nH]c(=O)[nH]c1=O` [Sparsomycin], the Phenotype entry (23S rRNA position 2499 "C to U", Halobacterium halobium) is “resistance”.
Regarding `CC[C@H]1OC(=O)[C@H](C)[C@@H](O[C@H]2C[C@@](C)(OC)[C@@H](O)[C@H](C)O2)[C@H](C)[C@@H](O[C@@H]2O[C@H](C)C[C@H](N(C)C)[C@H]2O)[C@](C)(O)C[C@@H](C)C(=O)[C@H](C)[C@@H](O)[C@]1(C)O` [erythromycin], the “Phenotype: growth rate” value (23S rRNA 1056 G to A, E. coli, with 2058G and erythromycin) is recorded as “erythromycin) Reduced”; the “Phenotype: growth rate” value (23S rRNA 1064 C to U, E. coli, with 2058G and erythromycin) is recorded as “erythromycin) Reduced”; the “Phenotype: growth rate” value (23S rRNA 1262 A to C, double mutant (A1262C/U2017G), E. coli, with erythromycin) is recorded as “With erythromycin; reduced”; the “Phenotype: growth rate” value (23S rRNA 1262 A to U, double mutant (A1262U/U2017G), E. coli, with erythromycin) was “With erythromycin; reduced”; the “Phenotype: growth rate” value (23S rRNA 1262 A to U, E. coli, with erythromycin) is given as “With erythromycin; reduced”; the “Phenotype: growth rate” value (23S rRNA 2017 U to A, E. coli) was “Reduced growth”. Moreover, the “Phenotype: growth rate” value (23S rRNA 2017 U to C, double mutation (U2017C/A1262G), E. coli) is listed as “Reduced growth”; the “Phenotype: growth rate” value (23S rRNA 2017 U to C, E. coli) is recorded as “Reduced growth”; the “Phenotype: growth rate” value (23S rRNA 2017 U to G, double mutation (U2017G/A1262C), E. coli) is reported as “Reduced growth”; the “Phenotype: growth rate” value (23S rRNA 2017 U to G, double mutation (U2017G/A1262U), E. coli) is on record as “Reduced growth”. Further, the Phenotype (23S rRNA 1068 G to A, E. coli, with 2058G, expressed from rrnB or pL promotor in presence of erythromycin) is reported as 2058G) Lethal when; the Phenotype result (23S rRNA 1137 G to A, double mutant (G1137A/G1138C), E. coli, with 2058G and erythromycin, rrnB promoter) is “lethal when expressed from rrnB”; the Phenotype result (23S rRNA 1137 G to A, E. coli, with 2058G and erythromycin, expressed from rrnB promoter) is “lethal when expressed from rrnB”; the Phenotype result (23S rRNA 1138 G to C, double mutant (G1138C/G1137A), E. coli, with 2058G and erythromycin, rrnB promoter) is given as “lethal when expressed from rrnB”; the Phenotype result (23S rRNA 1138 G to C, E. coli, with 2058G and erythromycin, rrnB promoter) was “lethal when expressed from rrnB”; the Phenotype entry (23S rRNA 1262 A to C, E. coli, with erythromycin) was “With erythromycin; lethal”. Also, under “23S rRNA 1262 A to G, E. coli, with erythromycin”, the Phenotype entry is “With erythromycin; lethal”.
